Source: patent US9181290B2, “Inhibition of biofilm formation by 1,2,3,4,6-penta-O-galloyl-D-glucopyranose” (CHANG GUNG UNIVERSITY, priority 2011, dated 2015)
Entries after “also recorded” stand apart in the source; their conditions may differ.

What was measured:
[1] = system: S. aureus SA113 (ATCC 35556); assay: Bacterial growth (A578) and biofilm formation (crystal violet, A595) in 96-well polystyrene microtiter plates; assay type: cell-based, Staphylococcus aureus; conditions: for Biofilm (%) / Growth (%): 6 hours after seeding, control = 100%, mean ± SD
Method: (§1) An overnight bacterial culture was 200-fold diluted with TSBg, and a 200 μL aliquot of the diluted culture was seeded into each well of 96-well polystyrene microtiter plates and incubated at 37° C. for a designated period of time. Cell growth was determined by measuring the absorbance at 578 nm (A578) with a microtiter plate reader (SpectraMax 340, Molecular Devices). After washing with PBS twice to remove suspended cells, the wells were stained with 0.1% (w/v) crystal violet in 10% ethanol and then treated with 30% acetic acid in dH2O, followed by detecting the absorbance at 595 nm (A595) with the microtiter plate reader to quantify the amount of biofilm formed on polystyrene surface.
An overnight culture of S. aureus SA113 was 200-fold diluted with TSBg, and a 200 μL aliquot of the diluted culture was seeded into each well of 96-well microtiter plates. Compounds purified from medicinal plants were added into each well at a designated concentration up to […]. At 6 hours after seeding, the amounts of biofilms formed in the wells were determined by crystal violet staining as described above. Cells treated with either distilled water or DMSO were used as a control. The amount of biofilm formation by the control group was set as 100%. Each experiment was repeated at least three times, with n=6 for each sample tested. The concentrations of compounds that inhibited 50% biofilm formation (IB50) were calculated based on logistic regression analysis results. Besides, the biofilm formation inhibition rate of a PGG-treated group was calculated using the following equation (1). Biofilm formation inhibition rate(%)=[(A−B)/A]×100 (1) wherein:
In the wells of 96-well microtiter plates, S. aureus SA113 cells were cultured in TSBg broth in the presence of either β-PGG or α-PGG at different amounts (0, 1 and 10 μM). After incubation at 37° C. for 6 hrs, the cell density was determined by measuring the absorbance at 578 nm (A578), and the amounts of biofilm were quantified by crystal violet staining, with the amount of biofilm formed by untreated bacterial cells being set as 100%. Each experiment was repeated three times, with n=6 for each sample tested.
To determine the effect(s) of (β-PGG upon bacterial growth and biofilm formation, β-PGG in various amounts (final concentration: 0, 1.56, 3.13, 6.25, 12.5, 25 and 50 μM) was added into the culture of S. aureus SA113 during seeding into the wells of polystyrene microtiter plates, followed by incubation at 37° C. for 6 hrs or 24 hrs. Cell growth was determined by measuring the absorbance at 578 nm, and the amount of biofilm formed on polystyrene surface was determined at 595 nm after crystal violet staining. In addition to polystyrene surface, the effect of β-PGG in inhibiting biofilm formation on polycarbonate surface was also examined according to the procedures as described in the preceding section entitled “Materials and methods.”

[2] = system: PIA production by clinical isolates of S. aureus (SA13, SA288, SA44, SA 130); assay: Quantification of PIA in four clinical isolates; assay type: cell-based, Staphylococcus aureus; conditions: 12.5 μM and 25 μM, 6 hrs
Method: The amount of PIA was determined by chemiluminescence detection using horseradish peroxidase-conjugated streptavidin (Pierce) according to a method described elsewhere (S. Schlag et al. (2007), supra). Briefly, a tested bacterial strain prepared in TSBg broth was added with β-PGG at a designated concentration and then cultured in a 9 cm petri dish for 6 hrs. The bacterial cells grown in the petri dish were collected by scraping, followed by centrifugation, and the resultant cell pellets were redissolved by addition of 3 mL of 0.5 M EDTA (pH 8.0) for every gram (wet weight) of cell pellet, followed by boiling at 100° C. for 10 min. After centrifugation at 10,000 g for 30 min, the resultant supernatant was 100-fold diluted. An 80 μL aliquot of the diluted supernatant was incubated with 20 μL of proteinase K (10 mg/mL, in dH2O) at 37° C. for 2 hrs, followed by blotting onto a PVDF membrane (Millipore) using a 96-well dot-blot apparatus. […] Thereafter, the membrane was detected by autoradiography using X-ray film, and the intensity of each spot formed on the X-ray film was quantified using a densitometer (LAS-3000, Fujifilm). The relative PIA amount produced by the tested bacterial strain was determined based on the detected intensity, with the amount of PIA from bacterial cells without PGG treatment being set as 100%. […]

[3] = system: human epithelial and fibroblast cells; assay: Toxicity to human cells (summary statement); assay type: cell-based; conditions: concentrations below 50 μM
Method: Human HepG2 cells (ATCC HB-8065) and 293T cells (ATCC CRL-11268) were cultured in Dulbecco's modified Eagle's medium (DMEM) supplemented with 10% (v/v) fetal calf serum. Human MRC-5 cells (ATCC CCL171) and HEp-2 cells (ATCC CCL-23) were cultured in Eagle's minimum essential medium (MEM) supplemented with 10% fetal calf serum. These four human cell lines were seeded into 24-well polystyrene tissue culture plates at a cell density of 1×10^5 cells/500 μL medium per well, respectively. After incubation at 37° C. for 24 hrs, β-PGG was added into each well in various amounts (0, 6.25, 12.5, 25 and 50 μM). After 24 hr treatment of β-PGG, toxicity of β-PGG to these human cell lines was determined using the 3-(4,5-dimethylthiazol-2-yl)-2,5-diphenyltetrazolium bromide (MTT) method (Xiangshu Piao et al. (2008), supra). Additionally, toxicity of β-PGG to the 293T cells was also determined in medium containing 0% and 2% fetal calf serum. Cells treated with DMSO were used as a negative control.

[4] = system: clinical strains SA289, SA44, SA435 and SA703; assay: Biofilm formation by four less sensitive clinical strains at 50 μM (data not shown); assay type: cell-based, Staphylococcus aureus; conditions: across the four clinical strains
Method: as §1

Structure (SMILES): O=C(OC[C@H]1O[C@@H](OC(=O)c2cc(O)c(O)c(O)c2)[C@H](OC(=O)c2cc(O)c(O)c(O)c2)[C@@H](OC(=O)c2cc(O)c(O)c(O)c2)[C@@H]1OC(=O)c1cc(O)c(O)c(O)c1)c1cc(O)c(O)c(O)c1 [β-PGG, 1,2,3,4,6-penta-O-galloyl-β-D-glucopyranose]
- viability of S. aureus SA113 cells (A578) ([1]; 1 μM and 10 μM, 6 hour incubation (anomer comparison)): did not affect the viability
- reduction of biofilm formation ([1]; 1 μM, 6 hour incubation (anomer comparison)): 10%
- killing of S. aureus SA113 ([1]; 10 μM): did not kill S. aureus SA113
- reduction of biofilm formation ([1]; 10 μM, 6 hour incubation (anomer comparison)): 65%
- Biofilm (%) ([1]; 10 μM): 5 ± 1%
- Growth (%) ([1]; 10 μM): 109 ± 8%
- Growth (A578) ([1]; 12.5 μM β-PGG, 6 hr, 0 μM: 0.68 ± 0.02): 0.65 ± 0.03
- Biofilm (A595) ([1]; 12.5 μM β-PGG, 6 hr, 0 μM: 6.31 ± 0.34): 0.26 ± 0.28
- reduction of biofilm formation ([1]; 100 μM, 6 hours): 98%
- Biofilm (%) ([1]; 100 μM): 2 ± 0%
- Growth (%) ([1]; 100 μM): 69 ± 5 %
- amounts of biofilm on polystyrene surface after 24 hr incubation ([1]; 24 hrs): approximately equal to those observed after 6 hr incubation
- inhibition at 6.25 µM ([1]; Staphylococcus aureus, ATCC35556, 6.25 μM, 6 hrs, read-out: inhibition of biofilm formation on polystyrene surface): 93%
- inhibition at 10 µM ([1]; Staphylococcus aureus, ATCC35556, 10 μM, 6 hr incubation (screening)): 95%
- inhibition at 12.5 µM ([1]; Staphylococcus aureus, ATCC35556, 12.5 μM, 6 hrs, read-out: inhibition of biofilm formation on polystyrene surface): 96%
- inhibition at 25 µM ([1]; Staphylococcus aureus, ATCC35556, 25 μM, 6 hrs, read-out: inhibition of biofilm formation on polystyrene surface): 97%
- inhibition at 100 µM ([1]; Staphylococcus aureus, ATCC35556, 100 μM, 6 hours): 31%
- IC50 ([1]; Staphylococcus aureus, ATCC35556, 6 hours, logistic regression, read-out: IB50 (concentration that inhibited 50% biofilm formation)): 3.6 µM
- viability of S. aureus SA113 ([1]; concentrations below 50 μM, 6 hours incubation): did not affect the viability; also recorded: did not kill S. aureus SA113 cells
- Cell Growth (%) ([1]; growth compared to untreated control at the concentration of IB50): 100%
- PIA production by four clinical isolates [2]: inhibited PIA production
- toxicity to human epithelial and fibroblast cells [3]: lacks toxicity; also recorded: not toxic
- reduction of biofilm formation [4]: 83-97%
